Entries after “also recorded” stand apart in the source; their conditions may differ.
Experiments:
[1] = system: NCI-H1693 (i.e. HR deficient) cell line; assay: dSTRIDE, double-strand DNA breaks; type: cell-based, human; settings: 48h; for number of double-strand DNA breaks detected by dSTRIDE: NCI-H1693, 5 μM or 50 μM etoposide
Experimental: (§1) NCI-H1693 and NCI-H661 were purchased from ATCC cell culture collection (18.05.2022). The detailed cell culture description is listed on Table 16. […] The master bank collection was prepared form #1 passage.
(§2) (also included passage number).
(§3) The labelling was performed according to protocols described in Examples 2 or 3.

[2] = system: NCI-H661 (i.e. HR proficient cell line); assay: dSTRIDE, double-strand DNA breaks; type: cell-based, human; settings: 48h; for number of double-strand DNA breaks detected by dSTRIDE: NCI-H661, 5 μM or 50 μM etoposide
Experimental: as §1, §2, §3

[3] = system: NCI-H1693 (i.e. HR deficient cell line); assay: dSTRIDE-RAD51 (dSTRIDE-HR), RAD51-associated double-strand DNA breaks; type: cell-based, human; settings: NCI-H1693, 5 μM or 50 μM etoposide, 48h
Experimental: (§4) • 1. […] (i.e. room temperature) • 2. […] (optional) rinse with PBS
(§5) • 1. TdT reaction at 37° C. with BrdU and TdT enzyme • 2. (optional) rinse with PBS
(§6) • 6. […] 7. […] (optional) PBS rinse • 9. […] (optional) PBS rinse
(§7) • 1. PLA probes binding reaction at 37° C. (Navinci PLA reagents and standard protocol) • 2. Reaction A at 37° C. • 3. Reaction B at 37° C. • 4. Reaction C at 37° C.
as §1, §2, §3

[4] = system: NCI-H661 (i.e. HR proficient cell line); assay: as above; type: cell-based, human; settings: 48h; for number of dSTRIDE-HR (RAD51) foci: NCI-H661, 5 μM or 50 μM etoposide
Experimental: as §4, §5, §6, §7, §1, §2, §3

[5] = system: NCI-H1693 (i.e. HR deficient) cell line; assay: dSTRIDE-RPA, RPA70-associated double-strand DNA breaks; type: cell-based, human; settings: 48h
Experimental: as §5
(§8) • 1. […] (optional) PBS rinse • 4. […] (optional) PBS rinse
as §7, §1, §2, §3

[6] = system: NCI-H661 (i.e. HR proficient cell line); assay: as above; type: cell-based, human; settings: NCI-H661, 5 μM or 50 μM etoposide, 48h
Experimental: as §5, §8, §7, §1, §2, §3

HAP1 cells (WT and KO) = system: HAP1 cells (WT and KO)
Experimental: (§9) • 1. Proteinase K treatment of the biological material for 30 seconds (at a concentration of about 7 μg/mL (1:350 dilution of proteinase K stock concentration of 2.5 mg/mL), solution in PBS) at about 22° C. (i.e. room temperature) • 2. (optional) incubation with 1 mM PMSF in PBS for 5 minutes at about 22° C. • 3. (optional) rinse with PBS
(§10) • 5. Polymerase I reaction at 37° C. with polymerase I enzyme, […], biotin-16-dUTP, biotin-16-dCTP, and dGTP • 6. (optional) rinse with buffer
(§11) • 1. (optional) 60 min incubation in Navinci Blocking Buffer at 37° C. • 2. 60 min incubation in 1:100 rabbit monoclonal anti-PMS2 (or PMS1 or MLH1) antibody in Navinci Primary Antibody Diluent at about 22° C. • 3. (optional) PBS rinse • 4. 60 min incubation in 1:100 mouse monoclonal anti-biotin antibody in Navinci Primary Antibody Diluent at about 22° C. • 5. (optional) PBS rinse
as §7
After 24 h of rest the operation medium was changed to a fresh one with supplementation of 1 μM or 10 μM 6-Tioguanine (6TG) in DMSO and left to rest for the incubation time 48h (final DMSO concentration was 0.1% in medium in each experimental condition). […]

HAP1 PMS2 KO cells = settings: 6TG 1 uM 48 h treatment
Experimental: as §9, §10, §11
(§12) • 1. PLA probes binding reaction at 37° C. (Navinci PLA reagents and standard protocol) • 2. Reaction A at 37° C. • 3. Reaction B at 37° C. • 4. Reaction C at 37° C. […]
(§13) When cell confluence reached 90%, cells were washed with sterile PBS (without Ca^2+ and Mg^2+) and incubated for 2 min with 2 mL of 0.25% trypsin solution with EDTA. Trypsin was inactivated with the culture medium containing FBS and the collected cells were counted in the Burker chamber. […]

HAP1 parental cells = settings: 6TG at a higher concentration
Experimental: as §9, §10, §11, §12, §13

human cells U2OS WT = system: human cells U2OS WT
Experimental: as §9, §10, §11, §7
In vehicle conditions the operation medium was changed to a fresh one with supplementation of 0.1% sterile DMSO and left to rest for the incubation time.

[7] = NCI-H1693 versus NCI-H661, 50 uM etoposide

COc1cc([C@@H]2c3cc4c(cc3[C@@H](O[C@@H]3O[C@@H]5CO[C@@H](C)O[C@H]5[C@H](O)[C@H]3O)[C@H]3COC(=O)[C@H]23)OCO4)cc(OC)c1O [etoposide, Etoposide]
number of double-strand DNA breaks detected by dSTRIDE [1]: increase in the number of double-strand DNA breaks; also recorded: dose-dependent increase in the number of DSBs; also recorded: dose-dependent formation of double-strand DNA breaks
number of double-strand DNA breaks detected by dSTRIDE ([1]; listed as Etoposide): efficiently induces DSBs
increase in DSBs (dSTRIDE), cell line comparison ([1]; NCI-H1693, 5 um etoposide): comparable in both cell lines
number of DSBs (dSTRIDE), cell line comparison [1, 7]: more profound increase; also recorded: more DSBs are induced in HR deficient than in HR proficient cell lines
number of double-strand DNA breaks detected by dSTRIDE [2]: dose-dependent increase in the number of DSBs; also recorded: dose-dependent response
number of double-strand DNA breaks detected by dSTRIDE ([2]; listed as Etoposide): efficiently induces DSBs
increase in DSBs (dSTRIDE), cell line comparison ([2]; NCI-H661, 5 um etoposide): comparable in both cell lines
number of RAD51-associated double-strand DNA breaks detected by dSTRIDE-RAD51 [3]: no response
number of RAD51-associated double-strand DNA breaks detected by dSTRIDE-RAD51 ([3]; listed as Etoposide): did not results in a detectable increase; also recorded: no response
number of dSTRIDE-HR (RAD51) foci [4]: dose-dependent increase; also recorded: dose-dependent response
number of dSTRIDE-HR (RAD51) foci ([4]; listed as Etoposide): increase in the number of visible fluorescence foci
number of RAD51-associated double-strand DNA breaks detected by dSTRIDE-RAD51 ([4]; NCI-H661, 50 uM etoposide): significant increase
number of RPA-associated double-strand DNA breaks detected by dSTRIDE-RPA ([5]; NCI-H1693, 5 μM or 50 μM etoposide): dose-dependent increase in the number of dSTRIDE-RPA foci
dSTRIDE-RPA foci, cell line comparison [5, 7]: more dSTRIDE-RPA foci detected in HR deficient cell line
number of RPA-associated double-strand DNA breaks detected by dSTRIDE-RPA [6]: dose-dependent increase in the number of dSTRIDE-RPA foci; also recorded: dose-dependent response

Nc1nc2[nH]cnc2c(=S)[nH]1 [6TG, 6-Tioguanine]
sSTRIDE-MMR (MLH1) readouts (HAP1 cells (WT and KO); HAP1 PMS2 WT and KO, 6TG treatment): increase in sSTRIDE-MMR (MLH1) readouts
PMS1 at SSBs (sSTRIDE-PMS1) (HAP1 cells (WT and KO); after treatment with 6TG): engaged in MMR processes
number of sSTRIDE-MMR fluorescence foci (HAP1 PMS2 KO cells): does not result in a significant increase
level of sSTRIDE-MMR signals (HAP1 parental cells): elevated level of sSTRIDE-MMR signals
maximum number of sSTRIDE MMR foci per nucleus (human cells U2OS WT; Sample 4, 6TG treated U2OS WT cells, 48 h (6TG 100nM per Table 3), antigen retrieval 1 (proteinase K 2 min)): 3 foci per nucleus
response in number of foci detected after 6TG treatment (quantitative image analysis) (human cells U2OS WT; U2OS WT, 6TG 48 h, antigen retrieval 1 (proteinase K 2 min)): no response
number of foci in the nucleus after treatment (human cells U2OS WT; U2OS WT, 48 h 6TG in different concentration, Abcam antibody, antigen retrieval method v2): did not significantly increase number of foci
sSTRIDE MMR readouts level of 6TG treated cells versus non-treated samples (human cells U2OS WT; U2OS WT, Abcam antibody, 6TG 250 nM-10 μM, 24 h or 48 h, antigen retrieval method 2): lower than in the non-treated samples
